Assay [1] has as its system IL-12. In words: IL-12 productivity of Mφ prepared by intraperitoneal injection of substances. In kind it is in vivo, mice. The following applies: stimulation with LPS and IFNγ; Mφ prepared by intraperitoneal injection of the substance. On the procedure:
(§1) The quantitative determination of IL-12 was conducted by a bioassay using human T cell strain 2D6 cells (refer to J. LEUKOCYTE BIOLOGY, vol. 61, PP 346, 1997).
(§2) The 2D6 cells cultured in RPMI 1640 medium containing 500 pg/ml of recombinant human IL-12, 50 μM 2-mercaptoethanol and 10% FCS (bovine fetal serum) were shifted into a tube and centrifugally washed three times with the same medium from which IL-12 was removed, and the cell concentration was adjusted to 1×10^5/ml. The cell suspension was added in an amount of 100 μl to each well of a 96-well flat bottom plate in which 100 μl of a sample diluted in series with RPMI 1640 medium containing 50 μM 2-mercaptoethanol and 10% FCS was previously charged in each well. The mixture was then charged into a 5% CO2 incubator at 37° C. to conduct the incubation for 48 hours. In the last 6 hours, ^3H-TdR was pulsed (a substance adjusted to 370 kBq/ml with RPMI 1640 medium containing 50 μM 2-mercaptoethanol and 10% FCS was added in an amount of 50 μl each). The cells were harvested, and a radioactivity was measured with a β counter (Matrix 96: manufactured by Packard).
Mφ prepared by intraperitoneally injecting LNT is reductive Mφ having a high GSH content, and Mφ prepared by intraperitoneally injecting LPS is oxidative Mφ having a low GSH content. It was examined whether or not there was a difference in IL-12 productivity between LNT derived Mφ and LPS derived Mφ.
Then, the same analysis was conducted using Mφ prepared by intraperitoneally injecting substances of changing the GSH content in cells.

The test system of assay [2] is IL-12. Briefly: Inhibition of IL-12 production from LNT-induced Mφ by addition of DEM or BCNU. Format: cell-based. On the procedure:
as §1, §2
It was shown that IL-12 was produced only in reductive Mφ having the high GSH content in cells. […] That is, it was analyzed whether the IL-12 production was inhibited by stimulating the Mφ induced by LNT with DEM or BCNU.

The subject of assay [3] is IL-12. In words: IL-12 productivity of Mφ from treated JAK3 knockout mice. In kind it is in vivo. The conditions noted are these: stimulation with LPS and IFNγ, 1 mg/ml in drinking water 24 days, no productivity in control group. On the procedure:
as §1, §2
(§3) JAK3 knockout mice were divided into three groups. […]

The test system of assay [4] is peritoneal Mφ of JAK3 knockout mice. In words: GSH content in peritoneal cells of treated JAK3 knockout mice, ACAS with MCB reagent. In kind it is in vivo. The conditions noted are these: 1 mg/ml in drinking water, 24 days. The protocol: 300 μl of a cell suspension having cell concentration of 3×10^5 cells/ml was prepared in RPMI 1640 medium (phenol-red-free), and it was charged into a chambered coverglass (#136439 manufactured by Nunc) and incubated in a CO2 incubator of 37° C. for 2 hours. The culture solution was washed with the same medium, and 300 μl of 10 μM monochlorobimane (made by Molecular Plobe) prepared with the same medium was added thereto. The mixture was charged into a CO2 incubator of 37° C., and reacted for 30 minutes. An intensity of fluorescence was then measured by ACAS. By this way, UV laser was used in the ACAS.
JAK3 knockout mice were divided into three groups. A control group was a group in which mice were caused to freely drink usual tap water, an NAC group was a group in which mice were caused to freely drink tap water containing 1 mg/ml of NAC, and a GSH-OEt group was a group in which mice was caused to freely drink tap water containing 1 mg/ml of GSH-OEt. The bleeding was continued under SPF conditions for 24 days, and peritoneal exudate adhered cells, namely macrophages were obtained in like manner.
Peritoneal cells of knockout mice that underwent the respective treatments were prepared, and the GSH content in cells was analyzed by ACAS using an MCB reagent.

A further assay has as its system IL-6. Briefly: IL-6 productivity of Mφ from treated JAK3 knockout mice. In kind it is in vivo. The following applies: LPS stimulation, 1 mg/ml in drinking water 24 days, untreated knockout 962 pg/ml. The protocol:
A stimulator was added to 1×10^6 Mφ, and the mixture was incubated in a CO2 incubator at 37° C. for 2 days. After centrifugation, the culture supernatant was collected.
The quantitative determination of IL-6 was conducted using mouse hybridoma MH60 cells grown dependently on IL-6 (refer to J. EUR. IMMUNOL., vol. 18, PP 951, 1988). 100 μl of the culture supernatant was added to 100 μl of the MH60 cell solution adjusted to a concentration of 1×10^5 cells/ml with a 10% FCS-containing RPMI medium, and the mixture was incubated in a CO2 incubator at 37° C. for 2 days. Then, 10 μl of MTT (made by Sigma) was adjusted to a concentration of 5 mg/ml with the same medium. The mixture was reacted at 37° C. for 5 hours. After completion of the reaction, the reaction mixture was centrifuged to remove 160 μl of the supernatant. 100 μl of hydrochloric acid-propanol was added thereto, and it was suspended therein with a pipette man to dissolve cells. Immediately after the dissolution, absorbance of 570 nm was measured by an immunometer (manufactured by Bio-Rad).
as §3

For assay [5], the system named is skin graft (B10.D2 donor, BALB/c recipient, different in minor antigen only). In words: Skin transplantation rejection model. Format: in vivo, mouse. The protocol: Mice, 8 to 10 weeks old, are used, a BALB/c (H-2d) mouse is used as a recipient in transplantation, and a B10.D2 (H-2d) mouse different in minor antigen only is used as a donor. To the recipient mouse, 3 mg of ketamine and 0.0075 mg of xylazine for anesthesia are intraperitoneally administered, and transplantation is performed. The skin on the body wall of the donor mouse is transplanted on the thoracic wall (8×8 mm). A gauze having a larger size than the graft covers there, and an antibiotic ointment is applied. The graft is fastened with a cast to complete the operation. The cast is removed after 7 days, and the rejection is then observed every day.
Mice, 8 to 10 weeks old, were used. A BALB/c (H-2d) mouse was used as a recipient of transplantation, and a B10.D2 (H-2d) mouse different in minor antigen only was used as a donor. […]
With respect to the drug, N,N′-diacetylcystine diethyl ester, 0.5 ml, per injection, of a 400 μg/ml solution was injected in each of the B10.D2 donor and the BALB/c recipient intraperitoneally and subcutaneously in a site for skin transplantation. […] The significant difference in graft survival rate after the skin transplantation was comparatively detected by the Breslow-Gehan-Wilcoxon test using Kaplan-Meier survival curves. […]

In assay [6] the test system is corneal graft (B10.D2 donor, BALB/c recipient, different in minor antigen only). Briefly: Corneal transplantation into high-risk eyes (induced corneal new blood vessels); rejection judged by corneal opacity score. Format: in vivo, mouse. The text has this:
In estimating the induction of the cornea take in the corneal allograft, mice, 8 to 10 weeks old, are used, a BALB/c (H-2d) mouse is used as a recipient, and a B10.D2 (H-2d) mouse only different in minor antigen is used as a donor.
The corneal transplantation inducing corneal new blood vessel of a high-risk eye that tends to cause rejection at a high rate in an early stage in a recipient: a corneal parenchyma is sutured with three stitches using a 11-0 nylon yarn which is allowed to stand for 14 days and the nylon yarn is removed in the corneal transplantation, is performed as follows. To a recipient mouse are intraperitoneally administered 3 mg of ketamine and 0.0075 mg of xylazine for anesthesia, and transplantation is performed. A central portion of cornea in a donor mouse is cut out to a circle having a diameter of 2 mm to form a graft. A central portion of cornea in a host mouse is cut out to a diameter of 2 mm. The donor cornea is sutured on margins with eight stitches using a 11-0 nylon yarn. After the surgical operation, an antibiotic ointment is coated thereon, and the eyelids are sutured with a 8-0 nylon yarn. The eyelid suture is removed after 72 hours from the surgical operation, and the corneal suture is removed on day 7 after the transplantation.
In the judgement of the corneal rejection, monitoring is performed twice a week using a slit-lamp microscope. The rejection is judged by scoring a corneal opacity with six grades. In connection with a time capable of judgement, the score of 3 or more on or after day 14 from the transplantation and the score of 2 or more on or after day 21 are judged to indicate the rejection. […]
In a method of one administration, a drug is dissolved or suspended in a physiological saline solution to a predetermined concentration, and 0.5 ml thereof is then intraperitoneally injected in a mouse. […] A significant difference in graft survival rate of the corneal transplantation was comparatively detected by the Breslow-Gehan-Wilcoxon test using Kaplan-Meier survival curves. […]

Assay [7] has as its system peritoneal exudate cells (macrophages). In words: Induction of oxidative or reductive macrophages, monochlorobimane/ACAS analysis of peritoneal exudate cells. In kind it is in vivo. The conditions noted are these: i.p. to mice: 20 μg LPS; 100 μg LNT three times every other day; monochlorobimane 10 μM, ACAS. The text has this: The increase in amount of oxidative macrophages can easily be detected visually from the fact that almost no reaction product is observed. More specifically, a gray or blue image is obtained. An increase in amount of reductive macrophages is known from the fact that a red or yellow image can be obtained.

Experimental findings from patent US20050079502A1, “Transplant rejection suppressor” (AJINOMOTO CO. INC., priority 2000, published 2005) are described below.

Consider `CCCCS(=N)(=O)CCC(N)C(=O)O` [BSO, L-S, R-buthionine sulfoximine], for which the IL-12 productivity result in the assay on IL-12 [1] is “IL-12 was produced by stimulation with LPS and IFNγ only in Mφ derived from mice administered with GSH-OEt”.

With `CCOC(=O)/C=C\C(=O)OCC` [DEM], the IL-12 productivity entry in the assay on IL-12 [1] was “IL-12 was produced by stimulation with LPS and IFNγ only in Mφ derived from mice administered with GSH-OEt”. For the same compound, in the assay on IL-12 [2] (addition of DEM or BCNU to LNT-induced Mφ, 828 pg/ml without addition), the “IL-12 production from the Mφ induced by LNT after addition” value is 0 pg/mL.

As for `CCOC(=O)CNC(=O)[C@H](CS)NC(=O)CC[C@H](N)C(=O)O` [GSH-OEt], the IL-12 productivity in the assay with IL-12 [3] is 610 pg/mL; with IL-12 [1] it was 3,570 pg/ml. For the same compound, the “reduced glutathione content in peritoneal Mφ vs tap water control group” value in assay [4] is “remarkably increased”. Further, the IL-6 productivity with IL-6 was 82 pg/mL.

Consider `CCOC(=O)[C@H](CSSC[C@H](NC(C)=O)C(=O)OCC)NC(C)=O` [N,N′-diacetylcystine diethyl ester], for which the MST in assay [5] (0.5 ml of 400 μg/ml i.p. and s.c., x3 before (donor and recipient) and day 3-21 after skin transplantation, N=8) was found to be 28.3 ± 1.8 days. Moreover, the “graft survival rate in comparison to the PBS administration control group” value in assay [5] (skin transplantation, N=8 vs N=10, P<0.013) is reported as “significantly increased”.

With `COC(=O)[C@H](CSSC[C@H](NC(C)=O)C(=O)OC)NC(C)=O` [NAC (OMe)2, N,N′-diacetylcystine dimethyl ester], in assay [6] (0.5 ml of 400 μg/ml i.p. 7 days, 4 days and 1 hour before corneal transplantation, N=15 vs N=10, P<0.0001, Breslow-Gehan-Wilcoxon test), the “graft survival rate in comparison to the PBS administration control group” value is listed as “significantly increased”. Further, the “rejection in 3 weeks” value in assay [6] (high-risk eye corneal graft, i.p. x3 before transplantation, PBS control rejected by 100% in approximately 3 weeks) is 0%. In addition, the “graft survival rate finally provided” value in assay [6] (high-risk eye corneal graft, observed till the eighth week) came out at 77%.

As to `CC(=O)N[C@@H](CS)C(=O)O` [NAC], in the assay on IL-12 [3], the IL-12 productivity was determined as 420 pg/mL. For the same compound, the “reduced glutathione content in peritoneal Mφ vs tap water control group” value in assay [4] is reported as “remarkably increased”. Also, the IL-6 productivity in the assay with IL-6 was found to be 122 pg/mi.

With letinan [LNT], the “type of macrophages induced” value in assay [7] was “reductive macrophages were induced”. Moreover, the IL-12 productivity in the assay with IL-12 [1] is on record as 1,312 pg/ml. Moreover, in the assay on IL-12 [2] (without addition of DEM or BCNU), the “IL-12 production from the Mφ induced by LNT” value came to 828 pg/mL.

As for lipopolysaccharide [LPS], the “type of macrophages induced” value in assay [7] is reported as “oxidative macrophages were induced”. In addition, the IL-12 productivity entry with IL-12 [1] is recorded as “no productivity was observed”.
